Where a name gives a salt, the structure may show the parent alone. Read-outs that look alike come from different tables or passages of the source.
Assays:
[1] = biological target: Rho-associated protein kinase 1 (ROCK1) (Homo sapiens, UniProt Q13464); assay: In vitro ROCKi activity, ROCK1; format: biochemical
Description: (§1) Activities of certain compounds and components of compounds described herein were assayed. […] Rho-associated protein kinase 2=ROCK2; Rho-associated protein kinase 1=ROCK1; Porcine Trabecular Meshwork cells=PTM; Human Trabecular Meshwork cells=HTM; Splenic Interleukin-23=SPNL IL23; and Tumor Necrosis Factor α=TNFα.

[2] = tested on: Porcine Trabecular Meshwork cells; assay: Activity in Porcine Trabecular Meshwork cells (PTM); format: cell-based; conditions: Sus scrofa
Description: as §1

[3] = biological target: Rho-associated protein kinase 2 (ROCK2) (Homo sapiens, UniProt O75116); assay: In vitro ROCKi activity, ROCK2; format: biochemical
Description: as §1

[4] = tested on: Human Trabecular Meshwork cells; assay: Activity in Human Trabecular Meshwork cells (HTM); format: cell-based
Description: as §1

Tumor Necrosis Factor α = assay: In vitro steroid activity, TNFα; format: cell-based; conditions: read-out: IC50 (nM) TNFα
Description: (§2) Activities of certain compounds and components of compounds described herein were assayed. […] Rho-associated protein kinase 2=ROCK2; […] Porcine Trabecular Meshwork cells=PTM; Human Trabecular Meshwork cells=HTM; Splenic Interleukin-23=SPNL IL23; and Tumor Necrosis Factor α=TNFα.

Splenic Interleukin-23 = assay: In vitro steroid activity, splenic IL-23; format: cell-based; conditions: read-out: IC50 (nM) SPLN IL23
Description: as §2

[5] = tested on: corneal epithelium debridement in C57/B1/6 mice; assay: In vivo PK/PD ocular surface corneal wound healing model; conditions: 0.1% E5 in SBEβCD
Description: E5 was formulated in 3.5% sulfobutylether-β-cyclodextrin (SBEβCD), 10 mM PBS, pH 6 and filtered with a 0.2 μm PVDF filter.
Anesthetized animals (8-10 weeks old male C57/B1/6 mice) were placed under a dissecting microscope and eyes proposed. Corneas of OD eyes were demarcated by centrally, and softly, marking the perimeters of the debridement area with a 2 mm trephine. A 10 μL drop of PBS was placed on the eye and an Algerbrush with a 0.5 mm burr attachment was utilized to carefully remove the epithelium within the demarcated area of the cornea. Topical fluorescein (Sigma) was applied, and excess fluorescein flushed prior to capture of a baseline image of the wound (time=0). Topical treatments were administered at t=0 and t=6 hours post-injury by applying 5 µL to the surface of the debrided eye. Fluorescein-stained corneas were imaged again 24 h after injury. Percent re-epithelialization was assessed by analysis of imaged corneas with Image J (NIH, Bethesda, MD).
0.1% dexamethasone and 0.5% loteprednol were used as positive clinically relevant controls.

[6] = tested on: Allergic Eye Disease (AED) in wildtype C57Bl/6 mice; assay: Chronic/severe allergic eye disease (AED) model, Meibomian gland dysfunction; format: in vivo; conditions: 0.1% E5 in SBEβCD, topical BID 5 uL
Description: E5 was formulated in 5% sulfobutylether-β-cyclodextrin (SBEβCD), 10 mM PBS (0.1% NaCl) solution, pH 6 and filtered with a 0.2 μm PVDF filter. AED was induced in wildtype C57Bl/6 mice. Animals were immunized with one intraperitoneal (i.p) injection of 100 μg of OVA (InvivoGen) in 300 ng of pertussis toxin (List Biologicals) and 4 mg of aluminum hydroxide (Alum, Thermo Fisher Scientific Pierce) on Day 0. Two weeks later, mice were treated topically QD with 5 μL OVA (50 μg/μL) in sterile saline for 5 days. Mice were treated topically BID with 5 uL of vehicle (10% SBEβCD), Lotemax® (Bausch & Lomb; loteprednol etabonate ophthalmic gel 0.5%) or 0.1% E5 in SBEβCD (50:1). The first treatment was administered on Day 14 (2 weeks after initial immunization), 10 minutes prior to OVA instillation followed by a second dose >7 hrs thereafter.
Assessment was carried out following euthanasia. All four lids were gently inverted under a dissection microscope to expose the posterior lid margin. The number of plugs on the upper and lower eyelids are analyzed and scored for severity as follows: 0 indicates no plug, 1+ indicates appearance of plug. 2+ is assigned to a plug that obstructs the entire MG (Meibomian gland) orifice, 3+ is a plug with a dome that rises above the plane of the eyelid margin, and a 4 is given to a plug that covers a larger surface than the MG orifice (usually with irregular circumference edges).
Clinical parameters including eyelid edema, chemosis, conjunctival redness, and tearing were each scored on a scale of 0-3+. A score of 0 indicated no evidence of the respective parameter, 1+ is assigned if the response is mild, but distinctly greater than the naive controls; 2+ for a moderate change in the respective parameters that could be noted by slit-lamp microscopy, but not with naked eye; and 3+ if the response is severe enough that could be perceived with naked eye.
Results are shown in FIG. 9, FIG. 10, and FIG. 11.

[7] = tested on: intraocular pressure in normotensive Dutch Belted rabbits; assay: Intraocular pressure study in normotensive Dutch Belted rabbits; format: in vivo; conditions: single dose E5 0.1% or 0.25%
Description: E5 was formulated in 3.5% or 6.5% sulfobutylether-β-cyclodextrin (SBEβCD), 10 mM PBS, pH 6 and filtered with a 0.2 μm PVDF filter. A single dose was administered and the intraocular pressure was measured, e.g., with a pneumatonometer, for 32 hours post-dose.

Chain of Rho-associated protein kinase 1 (ROCK1) (Q13464 whole entry, species assumed): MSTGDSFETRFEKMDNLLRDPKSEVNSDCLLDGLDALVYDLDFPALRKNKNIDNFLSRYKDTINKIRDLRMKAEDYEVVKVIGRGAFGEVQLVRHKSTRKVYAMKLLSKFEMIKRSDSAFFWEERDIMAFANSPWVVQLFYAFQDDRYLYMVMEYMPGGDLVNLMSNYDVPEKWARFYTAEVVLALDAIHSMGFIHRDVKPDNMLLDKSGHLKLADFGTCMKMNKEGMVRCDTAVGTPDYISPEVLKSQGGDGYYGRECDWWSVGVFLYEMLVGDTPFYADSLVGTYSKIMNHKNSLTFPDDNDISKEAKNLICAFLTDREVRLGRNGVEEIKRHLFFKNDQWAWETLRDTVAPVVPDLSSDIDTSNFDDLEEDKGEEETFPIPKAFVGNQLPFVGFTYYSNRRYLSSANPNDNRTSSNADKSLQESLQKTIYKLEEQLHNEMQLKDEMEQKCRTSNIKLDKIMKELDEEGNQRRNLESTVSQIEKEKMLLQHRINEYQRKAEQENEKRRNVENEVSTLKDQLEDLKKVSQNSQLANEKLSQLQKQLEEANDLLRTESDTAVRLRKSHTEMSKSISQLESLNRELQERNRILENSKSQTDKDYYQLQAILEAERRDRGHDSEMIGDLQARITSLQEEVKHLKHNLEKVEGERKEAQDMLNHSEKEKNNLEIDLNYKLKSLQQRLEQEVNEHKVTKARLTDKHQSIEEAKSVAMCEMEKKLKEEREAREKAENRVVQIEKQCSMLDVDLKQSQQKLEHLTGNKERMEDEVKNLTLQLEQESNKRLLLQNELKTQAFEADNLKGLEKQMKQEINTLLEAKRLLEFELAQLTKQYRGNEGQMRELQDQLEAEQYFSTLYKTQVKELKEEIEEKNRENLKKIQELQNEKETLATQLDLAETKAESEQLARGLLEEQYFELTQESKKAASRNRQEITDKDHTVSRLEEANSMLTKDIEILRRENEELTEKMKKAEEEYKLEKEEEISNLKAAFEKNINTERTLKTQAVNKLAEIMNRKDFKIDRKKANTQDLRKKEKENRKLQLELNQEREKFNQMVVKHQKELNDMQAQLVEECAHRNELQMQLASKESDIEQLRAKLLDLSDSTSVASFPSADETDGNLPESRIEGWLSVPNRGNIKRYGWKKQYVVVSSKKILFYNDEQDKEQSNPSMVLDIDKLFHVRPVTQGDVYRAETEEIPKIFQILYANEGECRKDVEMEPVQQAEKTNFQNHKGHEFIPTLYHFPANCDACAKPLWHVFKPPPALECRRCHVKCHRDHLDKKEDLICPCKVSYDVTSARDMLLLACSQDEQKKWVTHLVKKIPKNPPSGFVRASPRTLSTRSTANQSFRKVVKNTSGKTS
Chain of Rho-associated protein kinase 2 (ROCK2) (O75116 whole entry, species assumed): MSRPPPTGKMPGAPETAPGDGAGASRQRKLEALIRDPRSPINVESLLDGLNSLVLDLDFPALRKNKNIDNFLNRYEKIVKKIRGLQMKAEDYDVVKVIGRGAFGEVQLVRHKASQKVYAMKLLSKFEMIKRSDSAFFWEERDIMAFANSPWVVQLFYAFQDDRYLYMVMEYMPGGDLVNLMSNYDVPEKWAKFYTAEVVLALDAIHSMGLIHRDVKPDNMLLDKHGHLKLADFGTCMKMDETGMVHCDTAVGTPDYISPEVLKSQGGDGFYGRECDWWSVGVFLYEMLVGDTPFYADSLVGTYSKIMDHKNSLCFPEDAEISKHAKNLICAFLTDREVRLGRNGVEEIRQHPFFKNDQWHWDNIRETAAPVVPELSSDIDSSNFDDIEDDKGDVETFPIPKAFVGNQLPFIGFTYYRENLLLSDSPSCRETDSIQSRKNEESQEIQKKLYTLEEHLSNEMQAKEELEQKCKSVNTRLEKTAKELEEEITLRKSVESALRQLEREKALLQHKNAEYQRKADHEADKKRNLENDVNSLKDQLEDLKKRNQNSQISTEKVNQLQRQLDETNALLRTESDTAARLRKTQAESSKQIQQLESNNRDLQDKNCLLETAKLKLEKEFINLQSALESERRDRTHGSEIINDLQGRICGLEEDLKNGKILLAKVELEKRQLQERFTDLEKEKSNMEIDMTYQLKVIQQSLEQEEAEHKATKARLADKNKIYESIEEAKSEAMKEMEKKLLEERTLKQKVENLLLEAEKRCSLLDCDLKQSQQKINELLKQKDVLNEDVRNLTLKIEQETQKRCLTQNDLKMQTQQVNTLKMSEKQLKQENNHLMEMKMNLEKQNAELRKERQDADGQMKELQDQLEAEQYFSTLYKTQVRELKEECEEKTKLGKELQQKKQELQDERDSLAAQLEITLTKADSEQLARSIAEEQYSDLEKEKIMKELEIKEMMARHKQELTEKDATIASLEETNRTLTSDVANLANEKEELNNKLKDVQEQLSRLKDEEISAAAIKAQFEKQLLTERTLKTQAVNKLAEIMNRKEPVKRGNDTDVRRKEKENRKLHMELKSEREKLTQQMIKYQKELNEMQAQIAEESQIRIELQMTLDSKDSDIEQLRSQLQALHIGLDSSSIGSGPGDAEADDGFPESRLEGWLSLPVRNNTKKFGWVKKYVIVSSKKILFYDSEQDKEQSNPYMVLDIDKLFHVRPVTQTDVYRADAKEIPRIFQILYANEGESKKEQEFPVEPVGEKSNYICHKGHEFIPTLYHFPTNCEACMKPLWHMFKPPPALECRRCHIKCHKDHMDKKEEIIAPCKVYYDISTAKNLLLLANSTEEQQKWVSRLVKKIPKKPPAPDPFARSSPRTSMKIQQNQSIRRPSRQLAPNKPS

Row | Structure (SMILES) | IC50 [1] | IC50 [2] | IC50 [3] | IC50 [4] | IC50 (Tumor Necrosis Factor α) | IC50 (Splenic Interleukin-23; Splenic Interleukin-23) | re-epithelialization (recovery of epithelium) ([5]; 24 h after epithelium debridement, FIG. 12) | myeloperoxidase (MPO) levels (eye surface inflammation) ([5]; topical 5 µL at t=0 and t=6 hours post-injury, FIG. 13) | IC50 ([3]; read-out: IC50 (nM) ROCK2) | Meibomian gland orifice plugging (number and severity of MG plugs) ([6]; FIG. 10) | neutrophil levels in Meibomian gland and conjunctiva ([6]; FIG. 11) | clinical scoring (eyelid edema, chemosis, conjunctival redness, tearing) ([6]; better than loteprednol gel, significance on day 4, FIG. 9) | IC50 (Splenic Interleukin-23) | hyperemia ([7]; Dutch belted rabbits) | intraocular pressure (IOP) ([7]; measured for 32 hours post-dose, FIG. 14, FIG. 15)
1 | NC[C@@H](C(=O)Nc1ccc2cnccc2c1)c1ccc(CO)cc1 [A, reference compound] | 1.7 nM | 13 nM | 0.99 nM | 5 nM |  |  |  |  |  |  |  |  |  |  | 
2 | C[C@@H]1C[C@H]2[C@@H]3CCC4=CC(=O)C=C[C@]4(C)[C@@]3(F)[C@@H](O)C[C@]2(C)[C@@]1(O)C(=O)CO [B, Dexamethasone, reference compound] |  | ≥ 3000 nM |  | ≥ 3000 nM | 47 nM | 4.6 nM |  |  |  |  |  |  |  |  | 
3 | CC1(C)O[C@@H]2C[C@H]3[C@@H]4CCC5=CC(=O)C=C[C@]5(C)[C@@]4(F)[C@@H](O)C[C@]3(C)[C@]2(C(=O)CO)O1 [C, Triamcinolone, reference compound] |  |  |  |  | 0.51 nM | 0.93 nM |  |  |  |  |  |  |  |  | 
4 | CC1(C)O[C@@H]2C[C@H]3[C@@H]4CCC5=CC(=O)C=C[C@]5(C)[C@@]4(F)[C@@H](O)C[C@]3(C)[C@]2(C(=O)COC(=O)CCCC(=O)OCc2ccc([C@@H](CN)C(=O)Nc3ccc4cnccc4c3)cc2)O1 [Example E5, 4-((S)-3-amino-1-(isoquinolin-6-ylamino)-1-oxopropan-2-yl)benzyl (2-((6aS,6bR,7S,8aS,8bS,11aR,12aS,12bS)-6b-fluoro-7-hydroxy-6a,8a,10,10-tetramethyl-4-oxo-1,2,4,6a,6b,7,8,8a,11a,12,12a,12b-dodecahydro-8bH-naphtho[2′,1′:4,5]indeno[1,2-d][1,3]dioxol-8b-yl)-2-oxoethyl) glutarate dihydrochloride] | 9 nM | 55 nM |  |  | 10 nM |  | did not affect the recovery of epithelium | significantly reduced the cornea inflammation in comparison to PBS (phosphate-buffered saline) vehicle and loteprednol groups | 9 nM | effective in lowering both the number and severity of the MG plugs compared to both vehicle and loteprednol | reduced the number of neutrophils in the Meibomian gland and conjunctiva | statistically significantly improved compared to vehicle | 1 nM | no hyperemia observed | lowered IOP in a dose-dependent manner
5 | C[C@@H]1C[C@H]2[C@@H]3CCC4=CC(=O)C=C[C@]4(C)[C@@]3(F)[C@@H](O)C[C@]2(C)[C@@]1(O)C(=O)COC(=O)CCCC(=O)OCc1ccc([C@@H](CN)C(=O)Nc2ccc3cnccc3c2)cc1 [Example E15] | 7 nM | 40 nM |  |  | 147 nM | 12 nM |  |  | 4 nM |  |  |  |  |  | 

— patent US20240343755A1, “STABLE ISOQUINOLINE-CORTICOSTEROID CONJUGATES AND USES THEREOF” (priority 2021, published 2024)
